The record followed here is BindingDB's records for doi:10.1002/1520-636X(2001)13:3 (University of Maryland, 2001).

The target of assay [1] is Kappa-type opioid receptor (Rattus norvegicus, UniProt P34975).
Another assay deals with Mu-type opioid receptor (Rattus norvegicus, UniProt P33535).
Assay [2] addresses Delta-type opioid receptor (Mus musculus, UniProt P32300).

Mu-type opioid receptor, sequence (P33535 whole entry): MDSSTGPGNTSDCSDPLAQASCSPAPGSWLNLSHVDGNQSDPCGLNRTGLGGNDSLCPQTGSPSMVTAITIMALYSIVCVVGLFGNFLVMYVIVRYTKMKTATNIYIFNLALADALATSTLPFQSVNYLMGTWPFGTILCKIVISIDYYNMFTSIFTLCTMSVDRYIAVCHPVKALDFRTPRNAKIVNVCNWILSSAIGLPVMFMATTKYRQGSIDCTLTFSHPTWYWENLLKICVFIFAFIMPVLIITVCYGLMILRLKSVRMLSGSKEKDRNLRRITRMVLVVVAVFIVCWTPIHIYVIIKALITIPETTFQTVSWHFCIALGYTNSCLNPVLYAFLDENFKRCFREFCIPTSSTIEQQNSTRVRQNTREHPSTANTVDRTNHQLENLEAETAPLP
Delta-type opioid receptor, sequence (P32300 whole entry): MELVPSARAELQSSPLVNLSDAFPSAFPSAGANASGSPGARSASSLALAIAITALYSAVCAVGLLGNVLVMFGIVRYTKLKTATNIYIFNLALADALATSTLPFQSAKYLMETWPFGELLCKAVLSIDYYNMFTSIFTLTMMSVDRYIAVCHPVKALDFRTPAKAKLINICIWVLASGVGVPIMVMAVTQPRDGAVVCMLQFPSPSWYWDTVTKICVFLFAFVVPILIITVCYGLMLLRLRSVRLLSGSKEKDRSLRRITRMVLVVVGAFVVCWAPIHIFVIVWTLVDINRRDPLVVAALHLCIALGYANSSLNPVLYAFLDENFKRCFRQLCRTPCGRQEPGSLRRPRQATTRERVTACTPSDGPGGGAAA
Kappa-type opioid receptor, sequence (P34975 whole entry): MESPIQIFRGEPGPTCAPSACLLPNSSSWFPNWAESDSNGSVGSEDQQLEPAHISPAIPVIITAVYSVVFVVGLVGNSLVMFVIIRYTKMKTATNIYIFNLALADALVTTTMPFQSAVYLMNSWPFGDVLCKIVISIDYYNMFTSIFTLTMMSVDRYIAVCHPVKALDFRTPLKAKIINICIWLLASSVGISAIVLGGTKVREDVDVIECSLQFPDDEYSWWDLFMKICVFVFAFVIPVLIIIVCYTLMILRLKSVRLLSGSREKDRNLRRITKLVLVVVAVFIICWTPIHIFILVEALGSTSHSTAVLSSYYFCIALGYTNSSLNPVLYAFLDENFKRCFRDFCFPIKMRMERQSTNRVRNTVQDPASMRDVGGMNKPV

In assay [1], `CC(C)C[C@H](NC(=O)[C@H](Cc1ccccc1)NC(=O)CNC(=O)CNC(=O)[C@@H](N)Cc1ccc(O)cc1)C(=O)N[C@@H](CCCN=C(N)N)C(=O)N[C@@H](CCCN=C(N)N)C(=O)N[C@H](C)C(=O)N[C@@H](CCCN=C(N)N)C(=O)N1CCC[C@H]1C(=O)N[C@@H](CCCCN)C(N)=O` [[D-Ala8]Dyn A-(1-11)NH2] had a Ki of 9.53 nM.
For `CC(C)C[C@H](NC(=O)[C@@H](Cc1ccccc1)NC(=O)CNC(=O)CNC(=O)[C@@H](N)Cc1ccc(O)cc1)C(=O)N[C@@H](CCCN=C(N)N)C(=O)N[C@@H](CCCN=C(N)N)C(=O)N[C@H](C)C(=O)N[C@@H](CCCN=C(N)N)C(=O)N1CCC[C@H]1C(=O)N[C@@H](CCCCN)C(N)=O` [[D-Phe4, D-Ala8]Dyn A-(1-11)NH2], the inhibitory constant (Ki) on Mu-type opioid receptor was 88.2 nM; in assay [2], greater than 10000 nM.

Usually Ki stands for a measure of affinity in units of concentration, obtained from inhibition or displacement. A lower Ki goes with higher affinity.
